Source: patent publication US9138431B2, “Methods of treatment of histamine H-4 receptor-related pruritus” (BRIDGE PHARMA, INC., priority 2013, dated 2015)
Like-named read-outs stand apart in the source and are kept apart here.

Columns and labels:
[1] = target: human histamine H-1 Receptor (Homo sapiens (Human), UniProt P35367); test: Binding to histamine H-1 receptors; conditions: read-out: Human H-1 receptors IC50, heading: Human H-1 receptors IC50
Procedure: Affinities of the test compounds for peripheral human histamine H-1-receptors were assessed using receptor-binding assays. The specific binding of the radioactive ligand to the receptor was defined as the difference between total binding and nonspecific binding, determined in the presence of excess unlabeled ligand. Ki-values were determined according to the Cheng-Prusoff equation.

[2] = Dermal drug accumulation after oral administration (plasma and skin PK); type: in vivo, beagle dogs; conditions: Day 28, oral 8.0 mg/kg/day hydrogen fumarate salt, dogs
Procedure: Five male beagle dogs, weighing 11.2-13.9 kg (2-4 years old) were used in the study. All animals were administered gelatin capsules containing oral doses of the test article 8.0 mg/kg/day as a hydrogen fumarate salt, equal to 5.6 mg/kg/day of the free base. The animals were dosed once daily for four consecutive weeks followed by daily observations for an additional two-week washout period.
Multiple plasma samples and skin biopsies were taken from each dog on Day 1 and Day 28 of drug administration. The plasma and skin samplings were performed at pre-dose, and at 2, 6, 12 and 24 hours post-dose. Plasma and skin samples were also taken intermittently at predetermined intervals during the 28-days dosing period and up to the last day of the study, which was Day 42. Blood samples were taken from v. Cephalica antebrachii. Skin biopsies were taken from the area between the mid ventral to lateral abdominal areas, using a 6 mm (diameter) skin biopsy device (Acu-Punch®, Acuderm® Inc., Fort Lauderdale, Fla. 33309). Multiple plasma and biopsy samples were obtained from each of 4 or 5 dogs. Subcutaneous fat deposits were carefully trimmed from the skin samples and the skin samples were weighed. All plasma and skin samples were kept
The plasma samples and skin biopsy samples were analyzed using LC/MS/MS methodology. All pharmacokinetic analyses were performed using Pharsight WinNonlin® Professional v5.2.1 software.

[3] = target: human histamine H-4 Receptor (Homo sapiens (Human), UniProt Q9H3N8); test: Binding to histamine H-4 receptors ([3H]-histamine ligand); conditions: Cheng-Prusoff, read-out: Human H-4 receptor affinity (Ki)
Sequence of human histamine H-4 Receptor (Q9H3N8 whole entry): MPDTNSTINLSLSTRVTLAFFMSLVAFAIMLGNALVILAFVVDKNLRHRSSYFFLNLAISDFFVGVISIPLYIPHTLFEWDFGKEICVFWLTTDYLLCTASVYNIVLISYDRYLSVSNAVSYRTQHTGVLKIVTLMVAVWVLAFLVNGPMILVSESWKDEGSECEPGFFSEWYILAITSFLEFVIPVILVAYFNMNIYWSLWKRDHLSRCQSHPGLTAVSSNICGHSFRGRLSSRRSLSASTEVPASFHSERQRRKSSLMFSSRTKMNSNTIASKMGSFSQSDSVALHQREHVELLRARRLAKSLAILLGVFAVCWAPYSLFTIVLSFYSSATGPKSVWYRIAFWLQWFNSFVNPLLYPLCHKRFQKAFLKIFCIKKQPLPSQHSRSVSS
Procedure: Affinities of the test compounds for peripheral human histamine H-4-receptors were assessed using receptor-binding assays. The specific binding of the radioactive ligand to the receptor was defined as the difference between total binding and nonspecific binding, determined in the presence of excess unlabeled ligand. [^3H]-histamine was used as the ligand in this study and the affinity values were determined according to the Cheng-Prusoff equation.

[4] = system: histamine-induced pruritus; test: Antipruritic activity, histamine-induced pruritus in mice; type: in vivo, CD-1 mice; conditions: for Inhibition of histamine-induced pruritus (bouts of scratches): oral dosing 60 min before intradermal histamine 300 nmol, references 20 mg/kg, norketotifen escalating doses
Procedure: Antipruritic effects were tested in vivo in CD-1 mice, females, 10-12 weeks, according to methods known in the art. The hair was clipped over the rostral part of the back at the interscapular level of the mice one day before the dosing. Before the testing, the mice were placed in individual clear plastic cages for at least one hour for acclimation. After fasting for 1.5 hours, the animals were dosed orally with the test article, dissolved in a vehicle consisting of 1% methylcellulose/water, 10 mL/kg body weight. Sixty minutes after the oral dosing, an intradermal injection of histamine (300 nmol in 20 μl phosphate buffered saline (PBS), pH 7.4) was administered. Immediately after the histamine injection, the bouts of scratches were counted for 40 min. Scratching induced by the histamine vehicle PBS served as control.
Norketotifen was tested in escalating doses and in a supramaximal dose of 100 mg/kg.

[5] = system: pruritus induced by interleukin-31 (IL-31); conditions: recent study; cited from earlier work
[6] = Repeat-dose pharmacological and toxicological studies in dogs (sedation, tolerability); type: in vivo; conditions: daily doses up to 20 mg/kg/day
Description: Dogs vomit spontaneously for a variety of benign reasons—to expel unwanted content from their stomach, as a result of gastric irritation or in response to colonic irritation. In recent toxicological studies in dogs of various drugs, including isomeric norketotifen, vomiting occurred in both control groups and drug groups and may have been treatment-related, rather than drug-related. The unexpectedly low systemic toxicity of norketotifen and the isomers thereof is believed to be due to low systemic (plasma) concentrations, caused by the fact that norketotifen and the isomers thereof are not circulating in plasma but are accumulating in the skin, which is the largest organ in the body.

[7] = system: human granulocytes (leukocytes; buffy coat); test: Inhibition of histamine release from human granulocytes (A23187-induced); type: cell-based; conditions: for IC50: Homo sapiens, Leukocyte, 20 min, histamine release induced by A23187 5 μM, 20 min/37° C., read-out: Inhibition of mediator release IC50
Procedure: Histamine is excessively released from granulocytes in patients with pruritic diseases. The inhibition of histamine release from human granulocytes (leukocytes; buffy coat) by test articles was studied. Leukocytes were obtained from blood from healthy human volunteers and release of histamine was induced by incubation (20 min/37° C.) of the buffy coats with the calcium ionophore A23187 (5 μM) in the presence or absence of a test article. Histamine was analyzed by enzyme-immune assays, using commercially available kits and a microplate reader (MRX, Dynatech). The test articles were evaluated, in duplicate, at five concentrations.

[8] = Sedation in human subjects; type: in vivo; conditions: doses of 5 mg and 10 mg
[9] = system: histamine-induced pruritus; conditions: intradermal histamine, humans and mice; general statement; cited from earlier work

Sequence of human histamine H-1 Receptor (P35367 whole entry): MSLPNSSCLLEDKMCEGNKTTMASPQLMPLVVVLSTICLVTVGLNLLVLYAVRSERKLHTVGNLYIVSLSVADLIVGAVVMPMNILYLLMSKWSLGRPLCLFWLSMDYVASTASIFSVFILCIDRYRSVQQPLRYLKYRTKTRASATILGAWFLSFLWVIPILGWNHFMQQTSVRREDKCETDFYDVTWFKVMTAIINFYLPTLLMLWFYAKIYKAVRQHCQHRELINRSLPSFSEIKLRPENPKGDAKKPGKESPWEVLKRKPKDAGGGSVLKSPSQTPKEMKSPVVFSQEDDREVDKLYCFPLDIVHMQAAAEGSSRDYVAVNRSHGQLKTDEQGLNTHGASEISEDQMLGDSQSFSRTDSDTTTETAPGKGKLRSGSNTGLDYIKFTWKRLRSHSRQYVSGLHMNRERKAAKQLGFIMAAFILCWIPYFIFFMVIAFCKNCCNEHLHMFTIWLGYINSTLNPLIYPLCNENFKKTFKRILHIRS

O=C(O)/C=C/C(=O)O.O=C1Cc2ccccc2C(=C2CCNCC2)c2ccsc21 [R-NORKETOTIFEN, R-norketotifen]
IC50 [1]: 17 nM
MRT Plasma [2]: 14.1 h
t1/2 Plasma [2]: 7.7 h
MRT Skin [2]: 159.1 h
t1/2 Skin [2]: 157.0 h
Ki [3]: 2300 nM

CN1CCN(C(=O)c2cc3cc(Cl)ccc3[nH]2)CC1 [JNJ7777120, reference compound]
Inhibition of histamine-induced pruritus (bouts of scratches) [4]: potently inhibited
Inhibition of IL-31-induced pruritus [5]: failed to inhibit

O=C1Cc2ccccc2C(=C2CCNCC2)c2ccsc21 [Norketotifen, norketotifen]
Sedation or other adverse events, chronic dosing [6]: without causing sedation or other adverse events
IC50 ([1]; listed as RS-NORKETOTIFEN): 11 nM
IC50 [7]: 9200 nM
Potency relative to ketotifen as inhibitor of histamine release ([7]; human inflammatory cells): approximately 10 times
Inhibition of histamine-induced pruritus at supramaximal dose ([4]; norketotifen 100 mg/kg oral): complete inhibition
Inhibition of histamine-induced pruritus (bouts of scratches) [4]: dose-dependently inhibiting
Inhibition of histamine-induced pruritus (bouts of scratches) ([4]; listed as norketotifen): potently inhibited
Sedation [8]: do not produce sedation

CN1CCC(=C2c3ccccc3CC(=O)c3sccc32)CC1 [Ketotifen, ketotifen, reference compound]
IC50 [7]: 91000 nM

O=C1Cc2ccccc2C(=C2CCNCC2)c2ccsc21 [S-NORKETOTIFEN, S-norketotifen]
IC50 [1]: 23 nM
MRT Plasma [2]: 11.3 h
t1/2 Plasma [2]: 10.9 h
MRT Skin [2]: 159.0 h
t1/2 Skin [2]: 162.7 h
Ki [3]: 1100 nM

CC(C)(C(=O)O)c1ccc(C(O)CCCN2CCC(C(O)(c3ccccc3)c3ccccc3)CC2)cc1 (stereo not drawn) [fexofenadine]
Inhibition of pruritus following histamine injections by H-1 inhibitors [9]: not inhibited
